Laboratory results reported in patent US8017828B2, “Utilization of rare sugars in plant or microorganism” (Shikoku Research Institute Incorporated, priority 2004, dated 2011).

What was measured:
[1] = tested on: Brassica rapa var. amplexicaulis (variety: “Haru Ichiban”); experiment: Foliar spraying of sugar on Brassica rapa var. amplexicaulis; format: in vivo; conditions: 0.5% solution sprayed; for Terminal bud weight: control (water) 3.0; for Stem diameter: control (water) 22.8; for Number of lateral buds: control (water) 32.3; for Plant length: control (water) 49.3; for Total weight of lateral buds: control (water) 235.3
Source text: Brassica rapa var. amplexicaulis is a vegetable in the Brassica family, and flower buds are harvested and used. As the same species of vegetables, broccoli, cauliflower and the like are exemplified, which are important horticultural crops. As for such a vegetable, development of flower buds has a large effect on the crop yield. Therefore, during the house cultivation of Brassica rapa var. amplexicaulis (variety: “Haru Ichiban”), foliar spraying of a sugar solution at a concentration of 0.5% (w/v) was carried out and effects on the growth and the development of flower buds were examined. The seeds of Brassica rapa var. amplexicaulis were sown in a 128-cell tray on Oct. 23, 2003 and raised for about 20 days. Then, the raised seedlings were transplanted for permanent planting with a planting distance of 40 cm on two rows with an inter row space of 50 cm in separate beds filled with soil for cultivation “Hana to Yasai no Tsuchi (garden soil for flowers and vegetables)” (Kurokawa Shubyo En) on Nov. 12, 2003. The cultivation was carried out by a simple fertigation system, and irrigation was carried out for 1 hour on a daily basis with a 2,000-fold dilution of Hyponex through an irrigation tube. The cultivation was carried out in a vinyl house without heating with side windows open. From Dec. 18, 2003, water or a 0.5% (w/v) sugar solution was sprayed onto the whole plant on a three times weekly basis. As for the types of sugars, D-glucose, D-fructose and D-psicose were used and five plants were cultivated for each test plot. On Feb. 23, 2004, three plants of medium size were harvested and a survey was carried out. The survey items were plant length, stem diameter, number of lateral buds, terminal bud weight, total weight of lateral buds and the like.

Salsola komarovii = experiment: Seed germination, short-time and continuous treatment (Experiment 2); format: in vivo; conditions: for germination rate: immersed in 1% solution for 24 hours, in the end, DW 28%
Protocol: In order to clarify an effect of a short-time treatment, 50 seeds of Salsola komarovii, tomato (Home Momotaro) and sunny lettuce (Red Wave), and 20 seeds of morning glory (Tairin Zaki Kongo) were immersed in any of deionized water, 1% D-psicose, 1% D-allose and 1% L-galactose for 24 hours (25° C., dark), respectively, then, they were lightly washed with deionized water. Then, the seeds were sown in a dish with a diameter of 9 cm having a filter paper placed therein, and germinated under the same condition by poring 5 to 10 ml of deionized water therein. Further, for the comparison, a continuous treatment with 1% D-psicose was carried out in accordance with the same procedure.

[2] = tested on: Fusarium oxysporum, Glomerella cingulata, Verticillium dahliae and Botrytlis cinerea; experiment: Mycelial elongation of plant pathogenic bacteria on agar with rare sugar; format: cell-based; conditions: 0.05% (w/v) in agar medium, 23° C., 7 days
Protocol: By using as targets, Fusarium oxysporum, Glomerella cingulata, Verticillium dahliae and Botrytlis cinerea, which are typical plant pathogenic bacteria, an effect of a rare sugar on mycelial elongation was examined.
As the test bacterial strains, IFO 31213 strain, IFO 6425 strain, IFO 9765 strain and IFO 9760 strain were used.
After the cultivation, the length of the extending mycelium was measured.

[3] = tested on: Aspergillus niger, Cladosporium cladosporioides and Penicillium chrysogenum; experiment: Mycelial elongation of filamentous fungi on agar with rare sugar; format: cell-based; conditions: 0.05% (w/v) in agar medium, 25° C., 4 days
Protocol: By using as targets, Aspergillus niger, Cladosporium cladosporioides and Penicillium chrysogenum, which are typical filamentous fungi and generally seen in a living environment, an effect of a rare sugar on mycelial elongation was examined.
As the test fungal strains, NBRC 4066 strain, NBRC 4459 strain and NBRC 4626 strain were used.
Each test fungal strain was cultured on a potato dextrose agar medium at 25° C. for 7 days, and one in which the mycelium extended over the surface of the dish was pushed out along with the agar medium in such a manner that the agar medium was in a disc form with a diameter of 1.1 cm, which was placed at the center of a dish filled with an agar medium (1% Bacto agar) supplemented with any of a variety of rare sugars (allitol, D-altrose, L-mannose, L-galactose, D-tagatose, D-sorbose, D-psicose, D-allose, D-glucose and D-fructose) at 0.05% (w/v) and cultured at 25° C. for 4 days. After the cultivation, the length of the mycelium extending on the surface of the culture medium was measured. Two culture media were prepared for each test plot, and the mycelial length represents the average thereof.

[4] = tested on: strawberry plant (variety: “smile ruby”); experiment: Growth of strawberry seedlings in tissue culture medium with sugar; format: in vivo; conditions: increased (high) concentration in medium
[5] = tested on: cherry tomato plant “mini carol”; experiment: Hydroponic growth of cherry tomato with 0.05 or 0.5 mM sugar, 10 days; format: in vivo
Protocol: Subsequently, a cherry tomato plant “mini carol” was transplanted for permanent planting to a hydroponic apparatus, and a total of 7 treated plots in which a plot without addition (control plot) was added to 6 treated plots with the use of a nutrient solution supplemented with 0.05 mM or 0.5 mM D-psicose, D-fructose or mannitol were prepared. A survey was carried out with regard to the growth at 10 days after the permanent planting. […] The stem diameter was the smallest in the case of 0.5 mM D-psicose. The number of leaves was the smallest in the case of 0.5 mM D-psicose and 0.5 mM mannitol. The root length was the smallest in the case of 0.5 mM psicose.

[6] = tested on: cherry tomato plant “petite”; experiment: Hydroponic growth of cherry tomato with 0.05 or 0.5 mM sugar, 40 days; format: in vivo; conditions: until 40 days; for stem length, rank among 7 treated plots: 0.05 mM
Protocol: Further, on Dec. 18, 2003, a cherry tomato plant “petite” was transplanted for permanent planting to a hydroponic apparatus, and a total of 7 treated plots in which a plot without addition was added to 6 treated plots with the use of a nutrient solution supplemented with 0.05 mM or 0.5 mM D-psicose, D-fructose or mannitol were prepared. A survey was carried out with regard to the growth until 40 days after the permanent planting. As a result, the stem length was the shortest in the cases of 0.05 mM D-psicose and 0.05 mM D-fructose. Although a significant difference in the stem diameter was not observed among treated plots, however, a tendency was observed that the stem was slightly thinner in the treated plot of any of the sugars at a high concentration. A significant difference in the number of leaves was not observed among treated plots.

[7] = tested on: strawberry plant (variety: “smile ruby”); experiment: Growth of strawberry seedlings in tissue culture medium with sugar; format: in vivo; conditions: for Underground part weight / Number of lateral buds / Aerial part weight / Root length: 0.1% (w/v) in medium; for Underground part weight: without addition 0.5; for Number of lateral buds: without addition 0.6; for Aerial part weight: without addition 1.8; for Root length: without addition 8.7; for Plant length: 0.1% (w/v) in ½ strength MS medium, without addition 3.0
Protocol: Seedlings of a strawberry plant (variety: “smile ruby”) obtained by meristem culture under sterile conditions were used in an experiment.
As for the strawberry, by using ½ strength MS medium supplemented with 0.1% (w/v) D-psicose or D-glucose, the seedling plants were aseptically transplanted on Oct. 14, 2003, and then, cultivation was carried out in a culture chamber at 25° C. and 5,000 Lux (12-hour day length). Then, on Jan. 20, 2004, a survey was carried out with regard to the growth conditions of aerial part and underground part, the number of lateral buds and the like.

O=C[C@H](O)[C@H](O)[C@H](O)[C@H](O)CO [D-allose]
Terminal bud weight [1]: 7.9 g | Stem diameter [1]: 23.6 mm | Number of lateral buds [1]: 38.0 | Plant length [1]: 60.7 cm | Total weight of lateral buds [1]: 222.5 g | germination rate (Salsola komarovii): 16% | inhibitory effect on mycelial elongation [2]: has an effect on inhibiting mycelial elongation | effect on mycelial elongation [3]: have an effect of inhibiting mycelial elongation | growth when the concentration added to the medium was increased [4]: the growth thereof was delayed

O=C(CO)[C@@H](O)[C@H](O)[C@H](O)CO [D-fructose, reference compound]
Terminal bud weight [1]: 7.4 g | Stem diameter [1]: 19.9 mm | Number of lateral buds [1]: 41.3 | Plant length [1]: 55.8 cm | Total weight of lateral buds [1]: 231.1 g | stem length, rank among 7 treated plots ([5]; 0.5 mM): the longest | stem length, rank among 7 treated plots [6]: the shortest

O=C[C@H](O)[C@@H](O)[C@H](O)[C@H](O)CO [D-glucose, reference compound]
Underground part weight [7]: 1.2 g | Number of lateral buds [7]: 1.0 | Aerial part weight [7]: 3.0 g | Root length [7]: 8.7 cm | Plant length [7]: 4.3 cm | Terminal bud weight [1]: 5.7 g | Stem diameter [1]: 20.6 mm | Number of lateral buds [1]: 32.0 | Plant length [1]: 56.3 cm | Total weight of lateral buds [1]: 198.1 g

O=C(CO)[C@H](O)[C@H](O)[C@H](O)CO [D-psicose]
Underground part weight [7]: 1.9 g | Number of lateral buds [7]: 1.3 | Aerial part weight [7]: 3.1 g | Root length [7]: 7.2 cm | Plant length [7]: 4.5 cm | Terminal bud weight [1]: 8.8 g | Stem diameter [1]: 26.9 mm | Number of lateral buds [1]: 43.0 | Plant length [1]: 61.2 cm | Total weight of lateral buds [1]: 225.0 g | germination (Salsola komarovii; continuous treatment with 1%): promoted | germination rate (Salsola komarovii): 28% | stem length, rank among 7 treated plots ([5]; 0.05 mM): the second longest | fresh and dry aerial part weights, rank among 7 treated plots ([5]; 0.5 mM): the smallest | number of leaves, rank among 7 treated plots ([5]; 0.5 mM): the smallest | root length, rank among 7 treated plots ([5]; 0.5 mM): the smallest | stem diameter, rank among 7 treated plots ([5]; 0.5 mM): the smallest | stem length, rank among 7 treated plots ([5]; 0.5 mM): the shortest | stem length, rank among 7 treated plots [6]: the shortest | underground part weight, rank among 7 treated plots ([6]; 0.5 mM): the smallest | inhibitory effect on mycelial elongation [2]: has an effect on inhibiting mycelial elongation | effect on mycelial elongation [3]: have an effect of inhibiting mycelial elongation | growth when the concentration added to the medium was increased [4]: the growth thereof was delayed
